Structures are written as SMILES.

27 molecules from PMC12155096 (International Journal of Molecular Sciences, 2025) can be followed below.

The target of data set [1] is T1, human CYP1A2 (Homo sapiens, UniProt P05177).
T1 sequence (P05177 1-516): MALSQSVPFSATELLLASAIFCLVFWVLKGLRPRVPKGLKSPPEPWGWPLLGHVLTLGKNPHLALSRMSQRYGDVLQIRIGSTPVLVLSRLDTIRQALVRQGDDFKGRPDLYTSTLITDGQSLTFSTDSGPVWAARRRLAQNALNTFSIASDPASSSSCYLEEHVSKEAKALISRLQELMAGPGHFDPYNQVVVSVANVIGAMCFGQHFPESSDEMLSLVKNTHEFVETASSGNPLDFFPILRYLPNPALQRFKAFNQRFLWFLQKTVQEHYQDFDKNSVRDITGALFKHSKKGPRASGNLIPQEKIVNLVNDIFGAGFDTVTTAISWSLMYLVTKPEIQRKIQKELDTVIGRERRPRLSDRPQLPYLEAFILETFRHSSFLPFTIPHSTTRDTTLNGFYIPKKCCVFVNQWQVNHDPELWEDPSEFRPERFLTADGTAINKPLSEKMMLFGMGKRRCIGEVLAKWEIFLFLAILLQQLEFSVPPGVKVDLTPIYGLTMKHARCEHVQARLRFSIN

The target in data set [2] is human CYP2C9 (Homo sapiens, UniProt P11712).
For data set [3], the target named is human CYP2C19 (Homo sapiens, UniProt P33261).
Data set [4] addresses human CYP2D6 (Homo sapiens, UniProt P10635).
The target of data set [5] is CYP3A4 (Homo sapiens, UniProt P08684).
Sequence of CYP3A4 (P08684 whole entry): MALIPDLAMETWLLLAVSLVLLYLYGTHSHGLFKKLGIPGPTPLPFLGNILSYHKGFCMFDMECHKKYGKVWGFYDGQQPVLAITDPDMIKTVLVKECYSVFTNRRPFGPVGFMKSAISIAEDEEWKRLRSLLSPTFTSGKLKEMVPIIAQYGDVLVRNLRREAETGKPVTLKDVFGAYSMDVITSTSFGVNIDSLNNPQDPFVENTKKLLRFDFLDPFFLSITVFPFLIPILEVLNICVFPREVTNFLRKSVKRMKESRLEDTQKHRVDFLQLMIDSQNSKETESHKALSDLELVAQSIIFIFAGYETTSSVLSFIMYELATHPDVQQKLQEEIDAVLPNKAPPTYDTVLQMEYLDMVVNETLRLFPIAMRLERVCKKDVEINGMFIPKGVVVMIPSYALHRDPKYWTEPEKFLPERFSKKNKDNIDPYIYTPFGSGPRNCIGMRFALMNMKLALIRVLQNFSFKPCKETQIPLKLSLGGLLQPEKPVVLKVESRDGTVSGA

Sequence of human CYP2C19 (P33261 whole entry): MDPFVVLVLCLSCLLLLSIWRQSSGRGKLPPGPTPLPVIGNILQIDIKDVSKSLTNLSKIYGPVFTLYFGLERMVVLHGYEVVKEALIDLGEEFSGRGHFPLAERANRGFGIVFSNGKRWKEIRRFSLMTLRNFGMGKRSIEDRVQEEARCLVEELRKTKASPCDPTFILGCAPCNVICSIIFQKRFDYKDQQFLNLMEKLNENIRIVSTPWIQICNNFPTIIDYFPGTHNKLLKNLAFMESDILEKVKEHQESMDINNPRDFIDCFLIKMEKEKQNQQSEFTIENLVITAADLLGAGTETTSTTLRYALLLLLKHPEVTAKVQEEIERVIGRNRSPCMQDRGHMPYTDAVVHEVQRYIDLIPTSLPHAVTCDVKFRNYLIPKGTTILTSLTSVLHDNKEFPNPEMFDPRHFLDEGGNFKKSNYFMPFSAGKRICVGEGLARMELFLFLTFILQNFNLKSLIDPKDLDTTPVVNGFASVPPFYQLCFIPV
Sequence of human CYP2C9 (P11712 whole entry): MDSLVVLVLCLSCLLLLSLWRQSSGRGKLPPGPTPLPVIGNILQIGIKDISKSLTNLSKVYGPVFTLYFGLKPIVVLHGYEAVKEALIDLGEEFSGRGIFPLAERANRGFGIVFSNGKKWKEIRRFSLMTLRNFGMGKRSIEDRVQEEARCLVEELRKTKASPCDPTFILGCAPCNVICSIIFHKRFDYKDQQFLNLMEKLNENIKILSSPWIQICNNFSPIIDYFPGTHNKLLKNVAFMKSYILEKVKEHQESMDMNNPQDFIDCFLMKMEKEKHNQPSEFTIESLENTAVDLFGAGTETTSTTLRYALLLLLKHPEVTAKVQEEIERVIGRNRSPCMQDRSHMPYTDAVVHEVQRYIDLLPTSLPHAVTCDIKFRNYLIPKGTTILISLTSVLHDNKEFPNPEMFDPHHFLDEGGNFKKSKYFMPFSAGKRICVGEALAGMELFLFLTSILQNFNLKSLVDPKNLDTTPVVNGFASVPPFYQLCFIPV
Sequence of human CYP2D6 (P10635 whole entry): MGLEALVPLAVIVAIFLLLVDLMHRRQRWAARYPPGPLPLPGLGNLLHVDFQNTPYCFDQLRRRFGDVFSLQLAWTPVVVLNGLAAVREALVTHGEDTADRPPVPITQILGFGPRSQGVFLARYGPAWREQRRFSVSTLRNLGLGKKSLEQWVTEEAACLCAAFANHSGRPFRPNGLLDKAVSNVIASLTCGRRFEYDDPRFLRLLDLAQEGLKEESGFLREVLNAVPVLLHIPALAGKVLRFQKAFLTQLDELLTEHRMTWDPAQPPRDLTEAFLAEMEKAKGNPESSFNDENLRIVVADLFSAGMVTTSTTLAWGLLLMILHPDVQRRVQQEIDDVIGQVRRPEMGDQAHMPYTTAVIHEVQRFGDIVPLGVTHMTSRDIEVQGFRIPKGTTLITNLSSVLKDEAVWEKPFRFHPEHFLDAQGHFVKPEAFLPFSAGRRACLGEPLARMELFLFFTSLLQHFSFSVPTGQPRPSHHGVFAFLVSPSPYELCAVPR

In general, AC50 refers to the concentration at which the activity in the assay is half-maximal. Read a low AC50 as greater potency. In the case of `O=C(O)C(F)(F)C(F)(F)C(F)(F)C(F)(F)C(F)(F)C(F)(F)C(F)(F)F` [PFOA], the “CYP1A2 AC50 (half-maximal activity concentration)” value (“CYP1A2 AC50” below) in data set [1] was “Inactive”. Further, the AC50 came to 2.52 µM in data set [2] and 70.8 µM in data set [5]. For the same molecule, the “CYP2C19 AC50 (half-maximal activity concentration)” value (“CYP2C19 AC50” for short) in data set [3] is recorded as “Inactive”. Further, the “CYP2D6 AC50 (half-maximal activity concentration)” value (from here on “CYP2D6 AC50”) in data set [4] was “Inactive”.
Take `C/C=C1\C(=O)C[C@H]2[C@@H]3CCC4=CC(=O)CC[C@]4(C)[C@H]3CC[C@]12C` [Guggulsterone Z]: the “CYP1A2 AC50” value in data set [1] is “Inactive”. The concentration at half-maximal activity (AC50) worked out at 24.8 µM in data set [2], 6.83 µM in data set [3] and 3.8 µM in data set [5]. In addition, the “CYP2D6 AC50” value in data set [4] is “Inactive”.
In the case of `CCCOC(=O)c1c(Cl)c(Cl)c(Cl)c(Cl)c1C(=O)OCCC`, the concentration at half-maximal activity (AC50) is 1.72 µM in data set [1], 20.1 µM in data set [2], 12.5 µM in data set [3] and 2.63 µM in data set [5]. The “CYP2D6 AC50” value in data set [4] is “Inconclusive inhibitor”.
Take `C=C(C)C(=O)OCCCCCCCCCCOC(=O)C(=C)C` [1,10-Decanediol dimethacrylate]: the concentration at half-maximal activity (AC50) in data set [1] is 40.1 µM; in data set [4] it was 37 µM; in data set [5], 46.2 µM. For the same molecule, the “CYP2C9 AC50 (half-maximal activity concentration)” value (shortened to “CYP2C9 AC50”) in data set [2] is on record as “Inconclusive inhibitor”. Besides, in data set [3], the “CYP2C19 AC50” value was “Inconclusive inhibitor”.
With `Nc1ccc(Cl)cc1C(=O)c1ccccc1F` [2-Amino-5-chloro-2'-fluorobenzophenone], the AC50 in data set [1] came to 14.4 µM; in data set [2], 16.1 µM; in data set [3] it was 11.9 µM; in data set [5], 8.75 µM. Further, the “CYP2D6 AC50” value in data set [4] is given as “Inactive”.
As for `CCCCCCCCCCCSCC(=O)O` [3-Thiatetradecanoic acid], in data set [1], the “CYP1A2 AC50” value is on record as “Inconclusive inhibitor”. Also, the half-maximal activity concentration (AC50) in data set [2] was found to be 45.2 µM; in data set [4], 20.6 µM; in data set [5], 87.3 µM. Moreover, in data set [3], the “CYP2C19 AC50” value is given as “Inconclusive inhibitor”.
On to `Cl.O.c1cnc2c(c1)ccc1cccnc12`, for which the AC50 in data set [1] worked out at 10.6 µM; in data set [2], 4.59 µM; in data set [3], 8.94 µM; in data set [4], 38.5 µM; in data set [5] it was 38.5 µM.
With `CC(C)CC(O)Cc1ccccc1` (stereo not drawn) [4-Methyl-1-phenyl-2-pentanol], the AC50 in data set [1] turned out to be 37 µM; in data set [3] it was 37 µM; in data set [5], 34.3 µM. In data set [2], the “CYP2C9 AC50” value was “Inconclusive inhibitor”. Also, in data set [4], the “CYP2D6 AC50” value is reported as “Inactive”.
Take `Cc1cc(C)nc(O)n1.O=C(Nc1ccc([N+](=O)[O-])cc1)Nc1ccc([N+](=O)[O-])cc1` [Nicarbazin]: the “CYP1A2 AC50” value in data set [1] is “Inactive”. The “CYP2C9 AC50” value in data set [2] is given as “Inactive”. In data set [3], the “CYP2C19 AC50” value is listed as “Inconclusive inhibitor”. The “CYP2D6 AC50” value in data set [4] is “Inactive”. The molecule further yielded an AC50 in data set [5] of 7.42 µM.
In the case of `NS(=O)(=O)c1ccccc1OC(F)(F)F` [2-(Trifluoromethoxy)benzenesulfonamide], the results for the AC50 in data set [1] and in data set [2] were 51.9 µM and 62.1 µM, respectively. Further, the “CYP2C19 AC50” value in data set [3] was “Inconclusive inhibitor”. The “CYP2D6 AC50” value in data set [4] is on record as “Inactive”. In addition, in data set [5], the “CYP3A4 AC50 (half-maximal activity concentration)” value (“CYP3A4 AC50” for short) is reported as “Inactive”.
Consider `Cl.Nc1c2c(nc3c1CCC3)CCCC2.O` [Ipidacrine hydrochloride hydrate], for which, in data set [1], the “CYP1A2 AC50” value is reported as “Inconclusive inhibitor”. The “CYP2C9 AC50” value in data set [2] is given as “Inactive”. Further, the “CYP2C19 AC50” value in data set [3] is listed as “Inactive”. Further, the AC50 in data set [4] turned out to be 10.7 µM; in data set [5], 14.9 µM.
For `C[C@]12CC[C@H]3[C@@H](CCC4=CC(=O)CC[C@@H]43)[C@@H]1CC[C@@H]2OC(=O)CCC1CCCCC1` [Nandrolone cyclohexylpropionate], the values for the AC50 in data set [1], in data set [2] and in data set [5] were 26.8 µM, 17.4 µM and 4.56 µM, respectively. Moreover, the “CYP2C19 AC50” value in data set [3] is given as “Inconclusive inhibitor”. For the same molecule, the “CYP2D6 AC50” value in data set [4] is on record as “Inactive”.
In the case of `CC(C)(C)c1ccc(OP(=O)(Oc2ccccc2)Oc2ccccc2)cc1` [tert-Butylphenyl diphenyl phosphate], the AC50 turned out to be 18 µM in data set [1], 5.93 µM in data set [2], 5.26 µM in data set [3] and 8.02 µM in data set [5]. In data set [4], the “CYP2D6 AC50” value was “Inactive”.
With `CCCCCCCCC(CCCCCC)C(=O)O` (stereo not drawn) [2-Hexyldecanoic acid], in data set [1], the “CYP1A2 AC50” value is “Inactive”. The values for the half-maximal activity concentration (AC50) in data set [2], in data set [3] and in data set [5] were 26.2 µM, 34.3 µM and 65.1 µM, respectively. In data set [4], the “CYP2D6 AC50” value is “Inactive”.
With `OCc1cccc(Oc2ccccc2)c1` [3-Phenoxybenzenemethanol], the AC50 in data set [1] was 38.5 µM; in data set [2] it was 55.8 µM; in data set [3], 24.7 µM; in data set [5], 64.4 µM. Besides, in data set [4], the “CYP2D6 AC50” value is “Inconclusive inhibitor”.
Consider `C/C=C(\C)C(=O)OCc1ccccc1` [Benzyl tiglate], for which the AC50 in data set [1] amounted to 37 µM; in data set [5], 39 µM. Besides, the “CYP2C9 AC50” value in data set [2] is recorded as “Inactive”. Also, the “CYP2C19 AC50” value in data set [3] was “Inconclusive inhibitor”. In addition, the “CYP2D6 AC50” value in data set [4] is reported as “Inactive”.
As for `Cc1ccc(C(C)OC(=O)[C@]2(C)CC[C@H](C(=O)O)C2(C)C)cc1.OCCNCCO` (stereo partly drawn) [Tocanfil], in data set [1], the “CYP1A2 AC50” value was “Inactive”. In addition, the half-maximal activity concentration (AC50) was 36.1 µM in data set [2] and 14.4 µM in data set [5]. Also, the “CYP2C19 AC50” value in data set [3] is “Inactive”. The “CYP2D6 AC50” value in data set [4] is “Inactive”.
Consider `CC(C)(C)C(=O)C=Cc1ccc(Cl)cc1`, for which the concentration at half-maximal activity (AC50) came out at 21.2 µM in data set [1], 54 µM in data set [2], 6.98 µM in data set [3] and 20 µM in data set [5]. The “CYP2D6 AC50” value in data set [4] is on record as “Inactive”.
Consider `O=C(OCCCCCOC(=O)c1ccccc1)c1ccccc1` [Pentane-1,5-diyl dibenzoate], for which the concentration at half-maximal activity (AC50) in data set [1] stood at 8.29 µM; in data set [2], 10.5 µM; in data set [3], 48.1 µM; in data set [5] it was 26.9 µM. Also, the “CYP2D6 AC50” value in data set [4] was “Inactive”.
As to `O=C(O)C[C@H](NC(=O)OCc1ccccc1)C(=O)O` [N-[(Benzyloxy)carbonyl]-L-aspartic acid], the “CYP1A2 AC50” value in data set [1] is “Inactive”. In addition, the “CYP2C9 AC50” value in data set [2] is recorded as “Inactive”. Besides, in data set [3], the “CYP2C19 AC50” value is on record as “Inactive”. Besides, in data set [4], the “CYP2D6 AC50” value is recorded as “Inactive”. For the same molecule, in data set [5], the AC50 turned out to be 35.5 µM.
Turning to `C=C(C)C(=O)OCC[N+](C)(C)C.[Cl-]`, the AC50 is 10.5 µM in data set [1] and 23.4 µM in data set [5]. The “CYP2C9 AC50” value in data set [2] is listed as “Inactive”. Moreover, the “CYP2C19 AC50” value in data set [3] is given as “Inactive”. In addition, the “CYP2D6 AC50” value in data set [4] is reported as “Inactive”.
For `Nc1ccccc1S(=O)(=O)c1ccccc1` [2-(Phenylsulfonyl)aniline], the concentration at half-maximal activity (AC50) in data set [1] was determined as 50.5 µM; in data set [2], 8.25 µM; in data set [3], 17.8 µM; in data set [5], 71 µM. In addition, the “CYP2D6 AC50” value in data set [4] is “Inactive”.
With `C/C=C1/C(=O)C[C@H]2[C@@H]3CCC4=CC(=O)CC[C@]4(C)[C@H]3CC[C@]12C` [Guggulsterone E], in data set [1], the “CYP1A2 AC50” value is “Inconclusive inhibitor”. For the same molecule, the values for the AC50 in data set [2], in data set [3] and in data set [5] were 19.6 µM, 4.67 µM and 1.82 µM, respectively. Besides, in data set [4], the “CYP2D6 AC50” value was “Inactive”.
With `CCOC(=O)COc1ccc(Cl)cc1Cl` [2,4-D-ethyl ester], the half-maximal activity concentration (AC50) in data set [1] stood at 30.8 µM; in data set [2] it was 55.5 µM; in data set [3], 26.8 µM; in data set [5], 17.1 µM. Further, the “CYP2D6 AC50” value in data set [4] is recorded as “Inconclusive inhibitor”.
`O=C(Oc1ccccc1)c1cccc(C(=O)Oc2ccccc2)c1` [Diphenyl isophthalate]: the concentration at half-maximal activity (AC50) in data set [1] worked out at 36.1 µM; in data set [2] it was 9.46 µM; in data set [3], 9.89 µM; in data set [4], 36.5 µM; in data set [5] it was 20.9 µM.
In the case of `CCOC(=O)c1ccc(O)c(O)c1` [Ethyl protocatechuate], the values for the AC50 in data set [1] and in data set [2] were 27.2 µM and 32.2 µM, respectively. Further, the “CYP2C19 AC50” value in data set [3] is on record as “Inactive”. In addition, the “CYP2D6 AC50” value in data set [4] is recorded as “Inactive”. Further, in data set [5], the “CYP3A4 AC50” value is recorded as “Inactive”.
`CCCC(C)c1ccccc1O` (stereo not drawn) [2-(1-Methylbutyl)phenol]: the AC50 in data set [1] amounted to 56.6 µM; in data set [2] it was 49 µM; in data set [3], 10.9 µM. Moreover, in data set [4], the “CYP2D6 AC50” value is reported as “Inactive”. Besides, the “CYP3A4 AC50” value in data set [5] is recorded as “Inactive”.
